Results as given in patent US20260078120A1, “SUBSTITUTED PYRIDOPYRIMIDINONES” (MIRATI THERAPEUTICS, INC., priority 2022, published 2026).

Legend:
[1] = test system: T47D (PI3Kα H1047R mutant) cells; test: CellTiter-Glo 2.0 luminescent cell viability assay, 72 hours, T47D cells; format: cell-based; conditions: Homo sapiens, T47D, 72 h, T47D (PI3Kα H1047R mutant) cells, CellTiter-Glo, approximately 72 hours; read-out: T47D (H1047R mutant) Viability IC50
In short: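 Viability was measured by CellTiter-Glo 2.0 luminescence after approximately 72 h of compound exposure at 37° C. Plating was 1000 cells per well the day before dosing, with ten 1:4 dilutions from a 10 µM top concentration. Values as percent of vehicle were fitted by variable-slope log(inhibitor) regression to give IC50.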

[2] = test system: SKBR3 (PI3Kα wild type) cells; test: CellTiter-Glo 2.0 luminescent cell viability assay, 72 hours, SKBR3 cells; format: cell-based; conditions: Homo sapiens, SK-BR-3, 72 h, SKBR3 (PI3Kα wild type) cells, CellTiter-Glo, approximately 72 hours; read-out: SKBR3 (WT) Viability IC50
In short: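 Viability measured via CTG luminescence following roughly 72 hours of compound exposure at 37° C. Dosing used a 10 um starting concentration diluted 1:4 over 10 points; percent-of-vehicle data fitted with a variable-slope four-parameter model for IC50.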

Structure (SMILES) | IC50 [1] [nM] | IC50 [2] [µM]
Cc1cc([C@@H](C)Nc2ccccc2C(=O)O)c2nc(N3C[C@H](C)C(F)(F)C3)c(C)c(=O)n2c1 [Example 11-119, 2-(((R)-1-(2-((S)-3,3-difluoro-4-methylpyrrolidin-1-yl)-3,7-dimethyl-4-oxo-4H-pyrido[1,2-a]pyrimidin-9-yl)ethyl)amino)benzoic acid] | 132 | > 10
Cc1cc([C@@H](C)Nc2ccccc2C(=O)O)c2nc(N3C[C@@H](C)C(F)(F)C3)c(C)c(=O)n2c1 [Example 11-120, 2-(((R)-1-(2-((R)-3,3-difluoro-4-methylpyrrolidin-1-yl)-3,7-dimethyl-4-oxo-4H-pyrido[1,2-a]pyrimidin-9-yl)ethyl)amino)benzoic acid] | 168 | > 10
Cc1cc([C@@H](C)Nc2ccccc2C(=O)O)c2nc(N3CC(C)C(F)(F)C3)c(C)c(=O)n2c1 (stereo partly drawn) [Example 11-121, 2-(((1R)-1-(2-(3,3-difluoro-4-methylpyrrolidin-1-yl)-3,7-dimethyl-4-oxo-4H-pyrido[1,2-a]pyrimidin-9-yl)ethyl)amino)benzoic acid] | 60 | 5.22
Cc1cc([C@@H](C)Nc2ccccc2C(=O)O)c2nc(N3CCC(F)(F)[C@@H]3C)c(C)c(=O)n2c1 [Example 11-122, 2-(((R)-1-(2-((S)-3,3-difluoro-2-methylpyrrolidin-1-yl)-3,7-dimethyl-4-oxo-4H-pyrido[1,2-a]pyrimidin-9-yl)ethyl)amino)benzoic acid] | 320 | > 10
Cc1cc([C@@H](C)Nc2ccccc2C(=O)O)c2nc(N3CCC(F)(F)[C@H]3C)c(C)c(=O)n2c1 [Example 11-123, 2-(((R)-1-(2-((R)-3,3-difluoro-2-methylpyrrolidin-1-yl)-3,7-dimethyl-4-oxo-4H-pyrido[1,2-a]pyrimidin-9-yl)ethyl)amino)benzoic acid] | 285 | > 10
Cc1cc([C@@H](C)Nc2ccccc2C(=O)O)c2nc(N3CC(F)(F)C[C@H]3C)c(C)c(=O)n2c1 [Example 11-125, 2-(((R)-1-(2-((R)-4,4-difluoro-2-methylpyrrolidin-1-yl)-3,7-dimethyl-4-oxo-4H-pyrido[1,2-a]pyrimidin-9-yl)ethyl)amino)benzoic acid] | 531 | > 10
Cc1cc([C@@H](C)Nc2ccccc2C(=O)O)c2nc(N3CC(F)(F)C[C@@H]3C)c(C)c(=O)n2c1 [Example 11-126, 2-(((R)-1-(2-((S)-4,4-difluoro-2-methylpyrrolidin-1-yl)-3,7-dimethyl-4-oxo-4H-pyrido[1,2-a]pyrimidin-9-yl)ethyl)amino)benzoic acid] | 347 | > 10
Cc1cc([C@@H](C)Nc2ccccc2C(=O)O)c2nc(N3CC4CC3C4)c(C)c(=O)n2c1 [Example 11-127, (R)-2-((1-(2-(2-azabicyclo[2.1.1]hexan-2-yl)-3,7-dimethyl-4-oxo-4H-pyrido[1,2-a]pyrimidin-9-yl)ethyl)amino)benzoic acid] | 323 | > 10
Cc1cc([C@@H](C)Nc2ccc(Cl)nc2C(=O)O)c2nc(N3CCN(c4ccc(C#N)cc4)C[C@H]3C)c(C#N)c(=O)n2c1 [Example 11-128, 6-chloro-3-(((R)-1-(3-cyano-2-((R)-4-(4-cyanophenyl)-2-methylpiperazin-1-yl)-7-methyl-4-oxo-4H-pyrido[1,2-a]pyrimidin-9-yl)ethyl)amino)picolinic acid] | 275 | > 10
Cc1cc([C@@H](C)Nc2ccc(Cl)nc2C(=O)O)c2nc(N3CCN(c4ccc(C#N)cc4)C[C@@H]3C)c(C#N)c(=O)n2c1 [Example 11-129, 6-chloro-3-(((R)-1-(3-cyano-2-((S)-4-(4-cyanophenyl)-2-methylpiperazin-1-yl)-7-methyl-4-oxo-4H-pyrido[1,2-a]pyrimidin-9-yl)ethyl)amino)picolinic acid] | 960 | > 10
